Measurements taken from patent US20190070140A1, “COMPOSITION COMPRISING PROTECTIN DX AS ACTIVE INGREDIENT FOR PREVENTING OR TREATING HYPERLIPIDEMIA OR FATTY LIVER DISEASE” (Solvit P&F, priority 2017, published 2019).

What was measured:
FOXO1 = assay: Western-blot assay of FOXO1 acetylation in HepG2 cells (immuno-precipitation); format: cell-based, Human; settings: 0 to 2 μM PDX, 24 hours, FIG. 3B
Procedure: After collecting HepG2 cells, protein was extracted from the cells with a buffer (PRO-PREF; Intron Biotechnology, Seoul, Korea) at 4° C. for 1 hour. A protein sample (35 μg) was applied to 12% SDS-PAGE, transferred to a nitrocellulose film (Amersham Bioscience, Westborough, Mass., USA), detected with a primary antibody, followed by probing with a secondary antibody and another secondary antibody conjugated with horseradish […] (Santa Cruz Biotechnology). The sample was detected by ECL kit. Whole protein of HepG2 cell was extracted using an immune-precipitation buffer (IP buffer: 50 mM Tris-HCl, pH 7.8, 150 mM NaCl, 1% IGEPAL CA630) and then diluted to a concentration of 1 mg/mL. A polyclonal antibody to FOXO1 (Santa Cruz Biotechnology) diluted 1:150 was added to the mixture and the sample was incubated at 4° C. overnight. After incubation, each of the samples was provided with 50 μL of a protein A/G-Sepharose bead suspension (Santa Cruz Biotechnology), followed by gently mixing the same at 4° C. for 1 hour. The treated samples were subjected to centrifugation at 12,000 rpm for 30 seconds; and the beads were washed in IP buffer three times. The isolated beads were suspended again in 1×SDS-PAGE loading buffer, heated at 95° C. for 5 minutes, followed by vortexing and flash-centrifugation. […]

HFD diet mouse = assay: Hepatic steatosis in HFD diet mouse: H&E and Oil-Red-O staining, TG analysis kit; format: in vivo; settings: HFD mice, PDX i.p. 1 μg/mice/day for 8 weeks
Procedure: The present study has received the approval of the Institutional Animal Review Committee (Institutional Animal Care and Use Committee in Korea University, Seoul, Korea). The animal experiment was conducted according to the Guide for Care and Use of Laboratory Animals (NH publication, 8th Ed., 2011). A control group and a group of male C57BL/6J(B6) mice at 8 weeks of age were subjected to a normal diet (ND, Brogaarden, Gentofte, Denmark) and a high fat diet (HFD, Research Diets, New Brunswick, N.J., USA) for 8 weeks, respectively. The HFD (high fat diet) group was provided with intra-peritoneal injection of PDX for 8 weeks (1 μg/mice/day). An ethanol injection group was used as a control group.
HepG2 cells and a cut section of the liver in a mouse were stained by Oil-Red-O staining method, in order to determine cellular triglyceride such as triglyceride, that is, TG. The liver cells were fixed with 10% formalin for 40 minutes, and then stained with Oil-Red-O solution (Sigma) at 37° C. for 1 hour. A content of Oil-Red-O stained TG was quantified by adding isopropanol to each of the samples. The mixture was gently stirred at 25° C. for 8 minutes. Lastly, 100 μl of isopropanol-extracted sample was analyzed by a spectrophotometer at 510 nm.
Total lipids were extracted using a mixture of 2:1 chloroform:methanol (2:1, v/v). An organic layer was dissolved in 60% methanol immediately after drying the same. The extracted TG was measured by a colormetric TG analysis kit according to instructions of the manufacturer (Biovision, Milpitas, Calif., USA).
The present inventors have assessed PDX effects upon lipid accumulation in a mouse. For this purpose, a liver cut section from a mouse was subjected to histological assay and western-blot assay through H&E staining and Oil-Red-O staining, while TG accumulation was measured using a TG analysis kit.

SREBP1, FAS and SCD1 = assay: Western-blot assay of adipogenesis-related genes in palmitate-treated HepG2 cells; format: cell-based, Human
Procedure: Human liver cells, that is, HepG2 cells (ATCC, Manassas, Va., USA) were cultured in high-glucose Dulbecco's modified eagle medium (DMEM, Invitrogen, Carlsbad, Calif., USA), which includes 10% fetal bovine serum (FBS, Invitrogen), 100 units/mL of penicillin and 100 μg/ml of streptomycin. The cells were incubated at 37° C. under a condition of 5% CO2.
Mycoplasma was not detected in HepG2 cells. PDX (Cayman Chemical, Ann Arbor, Mich., USA) was dissolved in ethanol. Sodium palmitate (Sigma, St. Louis, Mo., USA) was mixed with 2% BSA (fatty acid free level; Sigma) in DMEM. […] In all experiments, the cells were treated with palmitate-BSA and PDX for 24 hours, while 2% BSA-ethanol was used as a control group.
After collecting HepG2 cells, protein was extracted from the cells with a buffer (PRO-PREF; Intron Biotechnology, Seoul, Korea) at 4° C. for 1 hour. A protein sample (35 μg) was applied to 12% SDS-PAGE, transferred to a nitrocellulose film (Amersham Bioscience, Westborough, Mass., USA), detected with a primary antibody, followed by probing with a secondary antibody and another secondary antibody conjugated with horseradish […] (Santa Cruz Biotechnology). The sample was detected by ECL kit.
Under 70% comfluency, 0 to 20 nmol/L […] (si)RNA oligonucleotide to ORP150 purchased from Santa Cruz Biotechnology was transfected to inhibit gene expression. Scramble siRNA was used as a control group. 2 or 4 μg of pCMV3-ORP150 (Sino Biological, Beijing, China) was transiently transfected, leading to over-expression of ORP150. pCMV3 empty-vector was used as a control group. According to instruction of the manufacturer, transfection was executed using lipofectamine 2000 (Invitrogen).
The present inventors have executed western-blot assay of SREBP1 expression in HepG2 cells that were treated with 200 μM palmitate and/or with 0 to 4 μg of ORP150 for 24 hours.

Structure (SMILES): CC/C=C\C[C@H](O)/C=C/C=C\C=C\[C@@H](O)C/C=C\C/C=C\CCC(=O)O [PDX, 10S,17S-dihydroxy-docosa-4Z,7Z,11E,13Z,15E,19Z-hexaeonic acid]
- PDX effects of reducing FOXO1 acetylation (FOXO1; HepG2 cells transfected with AMPK siRNA): inhibited
- FOXO1 acetylation (FOXO1; HepG2 cells, scramble siRNA): reduced depending upon PDX concentration
- intracellular fat deposit rate (stained liver cut section) (HFD diet mouse; compared to HFD diet group, FIG. 5A left): decrease
- accumulation of triglyceride in the liver (HFD diet mouse; vs HFD, FIG. 5A): considerably reduced
- hepatic fibrosis (stained liver cut section) (HFD diet mouse; FIG. 5A left): very little hepatic fibrosis
- expression of adipogenesis-related genes including SREBP1, FAS and SCD1 (SREBP1, FAS and SCD1; 24 hours, FIG. 1B): inhibited
- expression of adipogenesis-related genes SREBP1, FAS and SCD1 (SREBP1, FAS and SCD1; scramble siRNA, PDX administration, FIG. 2C): inhibited
- PDX effects of inhibiting the expression of adipogenesis-related genes (SREBP1, FAS and SCD1; silencing ORP150, FIG. 2C): significantly reduced
